# Test results from US8067422B2, “Crystal form of phenylamino pyrimidine derivatives” (Natco Pharma Limited, priority 2008, dated 2011).
# “Also recorded” adds a separate entry of the source.
# Columns and labels:
# K562 cells [1] = experiment: Anti-CML activity in nude mice implanted with K562 cells (leukemia growth index); format: in vivo; conditions: ip injections
# Excerpt: Nude mice (nu/nu) were implanted with K562 cells (1×10^6) via tail vein.
# Blood was drawn via the tail vein. Quantitative analysis of LGI was graphically represented.
# K562 cells [2] = experiment: Spleenic enlargement and spleen Crk immunocytochemistry in K562 implanted nude mice; format: in vivo; conditions: ip injections
# Description: Control mice were sacrificed on day 42 when secondary leukemia symptoms were observed, such as abdominal swelling and lack of circulation in the peripherals causing loss of digits with red spots under the skin surface. Spleen and any secondary tumors were harvested, fixed in formaldehyde and paraffin embedded as per standard protocols. Paraffin section were obtained and processed for immunocytochemistry. The rehydrated sections were treated with 0.3% H2O2 to inactivate any native peroxidases prior to immuno-probing. The sections were blocked with filter sterilized (0.22 μm) 1% BSA-PBS at room temperature for 1 h. Following blocking, the sections were immuno-probed with a human specific anti-Crk monoclonal primary antibody raised in rabbit against a synthetic peptide corresponding to residues in the SH2 domain, near the N-term of human CrkL protein (Abcam, Cambridge, Mass., USA) in 1% BSA-PBS overnight. Secondary antibody (anti-rabbit) conjugated to HRP was used to detect the presence of primary antibody. The sections were briefly rinsed three times in PBS solution after immuno-probing with secondary antibody, and DAB HRP substrate was added per manufacture's instructions (Sigma St Louis Mo. USA). The reaction was allowed to proceed until sharp contrast between positive and negative controls was observed. For negative controls primary antibody were eliminated. Leukemic mice spleen served as positive controls.
# Mice were sacrificed after a decrease in LGI was observed and spleen harvested. […] Control mice also developed random subcutaneous tumors showing Crk expression, indicative of the presence of K562 cells.
# [3] = tested on: Baf3 murine leukemia cells (Wt); experiment: Blast cell count in nude mice implanted with Baf3 Wt cells; format: in vivo; conditions: Baf3Wt; Imatinib 10 mg/kg, AN019 20 mg/kg, AN024 20 mg/kg, oral gavage or ip; day 42
# Excerpt: (§1) Blood smears were obtained via the tail vein or via the femoral vein every 6th day and blast cells counted and graphically represented.
# (§2) Abdominal swelling and decrease in activity was monitored daily, blood smear taken via the tail vein or the femoral vein every 6th day and H&E stained as per standard protocols. 42 days after implantation, mice were sacrificed and spleens harvested.
# (§3) Nude mice were intraperitoneally implanted with Baf3 mutant cells (wt, T315I, M351T or E255K). […] Blood was drawn from the femoral vein or tail vein every 6th day and blast cell count determined and graphically represented.
# [4] = tested on: Baf3 murine leukemia cells (T315I); experiment: Blast cell count in nude mice implanted with Baf3 T315I cells; format: in vivo; conditions: Baf3T315I; Imatinib 10 mg/kg, AN019 20 mg/kg, AN024 20 mg/kg, oral gavage or ip; day 42
# Excerpt: as §1, §2, §3
# [5] = tested on: Baf3 murine leukemia cells (E255K); experiment: Blast cell count in nude mice implanted with Baf3 E255K cells; format: in vivo; conditions: Baf3 E225K (E255K); Imatinib 10 mg/kg, AN019 20 mg/kg, AN024 20 mg/kg, oral gavage or ip; day 42
# Excerpt: as §1, §2, §3
# [6] = tested on: K562 luc human leukemia cells; experiment: Luciferase expression in nude mice implanted with K562 luc cells, low dose oral administration; format: in vivo
# Description: Five mice were used per group and divided into 24 groups+2 control. All groups were implanted with K562 normal/luc cells. Of the 24 groups, 12 were used for luciferase studies whereas the other 12 were used for blood smear count studies.
# Drugs were administered by oral gavage (2% gum acacia and 2% SLS in an aqueous suspension).
# [7] = tested on: MDAMB231 breast cancer cells; experiment: Matrigel invasion assay (modified Boyden chamber), MDA-MB-231; format: cell-based; conditions: MDA-MB-231
# Description: (§4) The in vitro invasiveness of 4910, 5310 and U87 glioma cells and MDAMB231 and ZR71 breast cancer cells in the presence of specified concentrations of compounds were assessed using a modified Boyden chamber assay. Cells were treated with these compounds for 48 h. 1×10^6 cells were suspended in 600 μl of serum-free medium supplemented with 0.2% BSA and placed in the upper compartment of the transwell chambers (Corning Costar Fischer Scientific Cat #07-200-158, Pittsburgh Pa.) coated with Matrigel (0.7 mg/ml). The lower compartment of the chamber was filled with 200 μl of serum medium and the cells were allowed to migrate for 24 h. After incubation, the cells were fixed and stained with Hema-3 and quantified as previously described (Mohanam et al. 1993). The migrated cells were imaged microscopically to determine the reduction in invasiveness induced by the compounds of this invention.
# 5310 glioma cells [8] = experiment: Matrigel invasion assay (modified Boyden chamber), 5310; format: cell-based; conditions: 5310
# Description: as §4
# ZR71 breast cancer cells = experiment: In vitro angiogenic assay, ZR-71 conditioned media on human dermal endothelial cells; format: cell-based; conditions: ZR-71 cells; radiation not distinguished
# Description: (§5) The in vitro angiogenesis of 4910, 5310 and U87 glioma cells and MDAMB231 and ZR71 breast cancer cells in the presence of specified concentrations of compounds were determined as follows, cells (2×10^4/well) were seeded in 8-well chamber slides and were treated with various concentrations of test compounds. After a 24 h incubation period, the conditioned media was removed and added to a 4×10^4 human dermal endothelial cell (monolayer in 8-well chamber slides) and the human dermal endothelial cells were allowed to grow for 72 h. Cells were then fixed in 3.7% formaldehyde and stained with H&E and photographed.
# 5310 glioma cells [9] = experiment: In vitro angiogenic assay, 5310 conditioned media on human dermal endothelial cells; format: cell-based; conditions: 5310 cells
# Description: as §5
# [10] = tested on: K562 luciferase expressing cells; experiment: Leukemic survival study in nude mice implanted with K562 luciferase expressing cells; format: in vivo
# Excerpt: K562 luciferase expressing cells were implanted intraperitoneally into nude mice; the mice were scanned using the xenogeny IVIS image station after ip injections of luciferin does determine implantations. Drug treatment was started as in previous studies day 15 after implantation. The animals were given treatment till day 42, after which drug treatment was stopped and survival of the animals determined as per the animal care regulations. […] Drug treatment was withdrawn on day 42 post implantation and survival of animals determined.
# [11] = tested on: 4910 human glioma xenograft cells; experiment: Glioma radiation study, nude mice intracranially implanted with 4910 cells; format: in vivo
# Description: Nude mice were intracranially implanted with 4910 human glioma xenograft cells (1×10^6 cells). Ten days after implantation mice were treated with AN019, AN024 or temozolomide with or without radiation (5 Gy/week). The experiment was terminated at day 40 post implantation.
# in vivo [12] = conditions: mouse, po
# in vivo [13] = conditions: mouse
smiles,measurement,setting,value
"Cc1ccc(NC(=O)c2cc(C(F)(F)F)cc(C(F)(F)F)c2)cc1Nc1nccc(-c2cccnc2)n1 [AN019, (3,5-bis trifluoromethyl)-N-[4-methyl-3-(4-pyridin-3yl-pyrimidin-2ylamino)-phenyl]-benzamide]","Physiological, phenotypic or behavioral abnormality",K562 cells [1],"no abnormal physiological, phenotypic or behavioral abnormality"
same,Crk expression in spleen (immunohistochemistry),K562 cells [2],basal levels of Crk expression; also recorded: only basal level expression
same,Spleenic enlargement (gross observation),K562 cells [2],did not show any spleenic enlargement
same,Blast cell count in blood smears,[3],complete regression of leukemic blast cells
same,Blast cell count in blood smears,[4],significant decrease in blast cell count
same,Blast cell count in blood smears,[5],significant decrease in blast cell count
same,Luciferase expression,[6]; 1 mg/kg,did not induce a decrease in luciferase expression
same,Luciferase expression,[6]; 5 mg/kg,fixation of leukemia cells at constant expression levels
same,Luciferase expression,[6]; 10 mg/kg,decrease in luciferase expression
same,Luciferase expression,[6]; 20 mg/kg,decrease in luciferase expression
same,±Change in invasion after radiation,[7],−30%
same,±Change in invasion after radiation,5310 glioma cells [8],+1%
same,Inhibition of angiogenesis,ZR71 breast cancer cells,complete inhibition of angiogenesis
same,Inhibition of angiogenesis,5310 glioma cells [9]; after radiation,inhibition of angiogenesis was greater in control conditions than after radiation treatment
same,Inhibition of angiogenesis,5310 glioma cells [9]; control conditions (without radiation),inhibition of angiogenesis was greater in control conditions than after radiation treatment
same,"Blast cell count from blood smears, effectiveness after withdrawal of drug treatment",[10]; drug treatment withdrawn on day 42,showed effectiveness after withdrawal of drug treatment
same,Mortality,"[10]; treatment day 15 to day 42, then withdrawn, 10 animals",did not show any mortality
same,Intracranial tumour size and appearance,[11]; with radiation (5 Gy/week),tumor size was significantly reduced
same,Intracranial tumour size and appearance,[11]; without radiation,tumours similar to AN024 treated animals
same,LD50,in vivo [12],1130 mg/kg
same,MTD,in vivo [13],500 mg/kg
